Experimental data taken from the NIST ThermoML archive (doi:10.1021/je0502400).
± gives the expanded uncertainty stated by the source.

Columns and labels:
[1] = molar heat capacity at constant pressure; mn = molality of the nth substance listed, in mol/kg; conditions: 298.15 K, 101 kPa, Liquid, Flow calorimetry
[2] = mn = molality of the nth substance listed, in mol/kg; conditions: 298 K, 101 kPa, Liquid

O=C([O-])CCC(=O)[O-].[Na+].[Na+] [disodium succinate] + O
Conditions | mass density, [2] [kg/m3] | molar heat capacity at constant pressure, [1] [J/K/mol]
m1 = 0.009952 | 998.141 ± 0.21 | 75.32 ± 0.16
m1 = 0.02038 | 999.243 ± 0.21 | 75.31 ± 0.16
m1 = 0.04187 | 1001.53 ± 0.21 | 75.28 ± 0.16
m1 = 0.06054 | 1003.53 ± 0.21 | 75.26 ± 0.16
m1 = 0.1003 | 1007.7 ± 0.22 | 75.22 ± 0.16
m1 = 0.2003 | 1018 ± 0.24 | 75.2 ± 0.16
m1 = 0.3001 | 1028.05 ± 0.26 | 75.23 ± 0.16
m1 = 0.5006 | 1047.46 ± 0.29 | 75.44 ± 0.16
m1 = 0.7497 | 1070.41 ± 0.34 | 75.93 ± 0.16
m1 = 1 | 1092.29 ± 0.38 | 76.61 ± 0.16
m1 = 1.494 | 1132.32 ± 0.47 | 78.38 ± 0.17
m1 = 1.999 | 1169.44 ± 0.55 | 80.61 ± 0.17

O=C([O-])C(=O)[O-].[K+].[K+] [potassium oxalate] + O
Conditions | mass density, [2] [kg/m3] | molar heat capacity at constant pressure, [1] [J/K/mol]
m1 = 0.01029 | 998.319 ± 0.22 | 75.17 ± 0.16
m1 = 0.01993 | 999.506 ± 0.21 | 75 ± 0.16
m1 = 0.03995 | 1001.9 ± 0.21 | 74.67 ± 0.16
m1 = 0.06118 | 1004.41 ± 0.22 | 74.34 ± 0.16
m1 = 0.1011 | 1009.21 ± 0.23 | 73.71 ± 0.16
m1 = 0.1971 | 1020.46 ± 0.24 | 72.27 ± 0.15
m1 = 0.2996 | 1032.09 ± 0.26 | 70.86 ± 0.15
m1 = 0.501 | 1054.2 ± 0.3 | 68.3 ± 0.15
m1 = 0.7483 | 1080.17 ± 0.35 | 65.5 ± 0.14
m1 = 0.9987 | 1105.27 ± 0.39 | 63 ± 0.13
m1 = 1.197 | 1124.39 ± 0.43 | 61.21 ± 0.13
m1 = 1.396 | 1142.79 ± 0.47 | 59.54 ± 0.13
m1 = 1.497 | 1151.71 ± 0.48 | 58.76 ± 0.13

[Cl-].[Na+] [sodium chloride] + O
Conditions | mass density, m1 = 0.9998 [kg/m3] | mass density, m1 = 1.999 [kg/m3] | mass density, m1 = 3 [kg/m3] | molar heat capacity at constant pressure, m1 = 0.9998 [J/K/mol] | molar heat capacity at constant pressure, m1 = 1.999 [J/K/mol] | molar heat capacity at constant pressure, m1 = 3 [J/K/mol]
[1] | – | – | – | 73.34 ± 0.16 | 72.23 ± 0.15 | 71.74 ± 0.15
[2] | 1036.18 ± 0.15 | 1072.22 ± 0.18 | 1105.7 ± 0.22 | – | – | –

O=C([O-])CC(=O)[O-].[Na+].[Na+] [sodium malonate] + O
Conditions | mass density, [2] [kg/m3] | molar heat capacity at constant pressure, [1] [J/K/mol]
m1 = 0.0102 | 998.203 ± 0.21 | 75.19 ± 0.16
m1 = 0.02019 | 999.271 ± 0.21 | 75.06 ± 0.16
m1 = 0.04023 | 1001.44 ± 0.21 | 74.8 ± 0.16
m1 = 0.05997 | 1003.61 ± 0.21 | 74.54 ± 0.16
m1 = 0.09952 | 1007.82 ± 0.22 | 74.04 ± 0.16
m1 = 0.2049 | 1018.85 ± 0.24 | 72.81 ± 0.16
m1 = 0.3005 | 1028.55 ± 0.26 | 71.8 ± 0.15
m1 = 0.4985 | 1048.21 ± 0.29 | 69.9 ± 0.15
m1 = 0.7356 | 1070.79 ± 0.34 | 68.01 ± 0.15
m1 = 0.9746 | 1092.13 ± 0.38 | 66.27 ± 0.14
m1 = 1.481 | 1134.8 ± 0.47 | 63.33 ± 0.13
m1 = 1.995 | 1173.58 ± 0.55 | 61.03 ± 0.13
m1 = 2.993 | 1241.78 ± 0.69 | –
m1 = 3.991 | 1296.36 ± 0.81 | –

O=C([O-])C(=O)[O-].[Na+].[Na+] [sodium oxalate] + O
Conditions | mass density, [2] [kg/m3] | molar heat capacity at constant pressure, [1] [J/K/mol]
m1 = 0.009986 | 998.164 ± 0.21 | 75.31 ± 0.16
m1 = 0.01989 | 999.268 ± 0.21 | 75.27 ± 0.16
m1 = 0.03998 | 1001.48 ± 0.21 | 75.22 ± 0.16
m1 = 0.0603 | 1003.67 ± 0.21 | 75.17 ± 0.16
m1 = 0.09999 | – | 75.08 ± 0.16
m1 = 0.1502 | 1013.28 ± 0.23 | 75 ± 0.16
m1 = 0.1996 | 1018.42 ± 0.23 | 74.93 ± 0.16
m1 = 0.2494 | 1023.55 ± 0.24 | 74.88 ± 0.16
